Holding throughout (assay): NCI anticancer screen, dose series, 48 h
Experiment [1] concerns SK-OV-3 ovarian.
Experiment [2] has as its system RXF 393 renal.
Experiment [3] has as its system 786-0 renal.
Experiment [4] has as its system SNB-75 CNS.
Experiment [5] has as its system OVCAR-4 ovarian.
In experiment [6] the test system is M14 melanoma.
The subject of experiment [7] is HL-60(TB) leukemia.
For experiment [8], the system named is UACC-257 melanoma.
Experiment [9] relates to HOP-62 NSCLC.
Experiment [10] has as its system OVCAR-8 ovarian.

From PubChem BioAssay (NCI) come the findings set out here.

Several values for one entry are separate records, joined by “and”; a condition that tells them apart may be missing. Identical values can stand only once.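 Where inhibition never reached the appropriate level, the endpoint shown equals the highest concentration tested. Otherwise, values were interpolated linearly from a five-concentration, 48-hour dose response in 96-well plates. GI50 = concentration required for 50% inhibition of growth. Definition used: TGI = concentration required for complete inhibition of growth.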

`O=C1/C(=C\c2ccc(Cl)cc2)CN(C(=O)c2ccccc2)C/C1=C\c1ccc(Cl)cc1`: the GI50 in experiment [1] is 4.64 µM; in experiment [2] it was 1.68 µM; in experiment [3], 2.19 µM; in [4] it was 3.77 µM; in experiment [5] it was 2.54 µM; in experiment [6], 2.63 µM. Moreover, the GI50 was 6.58 µM in experiment [7], 5.51 µM in experiment [8], 2.45 µM in [9] and 3.41 µM in [10]. Moreover, the TGI in experiment [1] is 32.3 µM; in experiment [2], 3.26 µM; in [3], 4.6 µM; in experiment [4], greater than 71.8 µM; in experiment [5] it was 19.4 µM; in [6], 7.39 µM. Also, the TGI in experiment [7] is 66.2 µM; in experiment [8], 33.9 µM; in experiment [9] it was 6.41 µM; in [10], greater than 100 µM.
On to `CC(=O)N[C@@H](Cc1ccc(OP(=O)(O)O)cc1)C(=O)N[C@H]1CCC(=O)N2CCC[C@@H](C(=O)NCc3cccc4ccccc34)N2C1=O`, for which the GI50 in [1], in experiment [2], in experiment [3], in experiment [4], in experiment [5] and in experiment [6] was greater than 25 µM each time. Moreover, the GI50 in [7], in [8], in [9] and in experiment [10] was greater than 25 µM in each case. Also, the TGI in experiment [1], in experiment [2], in experiment [3], in experiment [4], in experiment [5] and in [6] was greater than 25 µM each time. In addition, the TGI in [7], in experiment [8], in experiment [9] and in experiment [10] was greater than 25 µM each time.
As for `CC(C)[C@]12O[C@H]1[C@@H]1O[C@]13[C@]1(O[C@H]1C[C@H]1C4=C(CC[C@@]13C)C(=O)OC4)[C@@H]2OC(=O)OC(C)(C)C`, the GI50 in [1] was 0.0402 µM; in experiment [2], less than 0.0118 µM; in experiment [3], 0.0308 µM; in experiment [4], 0.0193 µM; in experiment [5], 0.0273 µM; in [6], 0.0157 µM. Moreover, the GI50 in [7] was less than 0.01 µM; in [8] it was 0.0176 µM; in [9], 0.0146 µM; in [10], 0.0281 µM. For the same compound, the TGI was greater than 100 µM in experiment [1]; 0.0286 µM in [2]; greater than 100 µM in experiment [3]; 0.062 µM in experiment [4]; greater than 100 µM in [5]; 0.0336 µM in experiment [6]. In addition, the TGI was 0.805 µM in experiment [7], 0.0544 µM in [8], greater than 100 µM in experiment [9] and greater than 100 µM in experiment [10].
Take `O=C(NCCNc1nccc(-c2c(-c3ccc(F)cc3)nc3sccn23)n1)Nc1cccc(C(F)(F)F)c1`: the GI50 was 2.67 µM in experiment [1]; 1.99 µM in experiment [2]; 5.16 µM in experiment [3]; 7.13 µM in experiment [4]; 4.74 µM in experiment [5]; 8.73 µM in experiment [6]. Besides, the GI50 in experiment [7] was 11.5 µM; in experiment [8], 10.6 µM; in [9] it was 2.9 µM; in [10], 3.76 µM. Also, the TGI was 11.9 µM in [1]; 6.05 µM in experiment [2]; 24.9 µM in experiment [3]; 21.7 µM in experiment [4]; 43 µM in experiment [5]; 21.8 µM in [6]. Also, the TGI is greater than 100 µM in experiment [7], 26.1 µM in [8], 10.1 µM in experiment [9] and 27.4 µM in experiment [10].
As to `CCN1C2=C(SC(=S)C1=C1SC(C(=O)c3ccccc3)=C(C(=O)c3ccccc3)S1)SC(=Nc1ccccc1)C2=O`, the GI50 is greater than 96.7 µM in experiment [1]; 9.09 µM in [2]; 1.53 µM in experiment [3]; 12.6 µM in experiment [4]; greater than 100 µM in [5]; greater than 100 µM in [6]. Further, the GI50 was greater than 100 µM in experiment [7], greater than 100 µM in experiment [8], 21.7 µM in experiment [9] and 2.34 µM in experiment [10]. Besides, the TGI in experiment [1] is greater than 100 µM; in experiment [2] it was greater than 45.3 µM; in experiment [3], greater than 68 µM; in [4], greater than 63.4 µM; in experiment [5] it was greater than 100 µM; in [6], greater than 100 µM. For the same compound, the TGI in experiment [7] was greater than 100 µM; in experiment [8] it was greater than 100 µM; in experiment [9] it was 76.2 µM; in experiment [10], greater than 67.5 µM.
Turning to `CC12OC(C(=O)C13CC3)C1C(=O)c3cccc(O)c3C(=O)C12` (centres undefined), the GI50 in [1] is 22.9 µM; in experiment [2], 1.43 µM; in [3] it was 6.45 µM; in experiment [4], 12.5 µM; in experiment [5] it was 3.16 µM; in [6], 24.6 µM. Further, the GI50 in experiment [8] is 19.6 µM; in experiment [9] it was 7.21 µM; in experiment [10] it was 8.12 µM. The TGI is greater than 75.3 µM in experiment [1]; 9.3 µM in experiment [2]; 19.2 µM in experiment [3]; greater than 37.4 µM in experiment [4]; 12 µM in experiment [5]; 63.5 µM in [6]. The TGI is 0.539 µM in [7], 50.8 µM in experiment [8], 19.7 µM in [9] and greater than 38.5 µM in experiment [10].
Consider `CC(C)c1ccc2c(c1)CCC1C(C)(CN)CCCC21C` (centres undefined), for which the TGI in experiment [1] was 3.98 µM; in experiment [2] it was 2.98 µM; in experiment [3], 2.89 µM; in [4] it was 3.19 µM; in [5], 2.72 µM; in experiment [6], 3.1 µM. The TGI in [7] was determined as 3.09 µM; in [8], 3.03 µM; in [9], 3.14 µM; in experiment [10], 3.4 µM.
Consider `COc1cccc(Nc2ncnn3ccc(CN4CC[C@@H](N)[C@H](O)C4)c23)c1`, for which the GI50 in [1] is 0.0386 µM and 0.0322 µM; in [2] it was 0.601 µM and 0.405 µM; in experiment [3], 1.08 µM and 1.18 µM; in [4] it was 0.102 µM and 0.043 µM; in experiment [5] it was 13.3 µM and > 5.11 µM; in [6] it was 20.4 µM and > 5.03 µM. Further, the GI50 in experiment [7] was 20.3 µM and > 4.71 µM; in experiment [8] it was 17.5 µM and > 5.79 µM; in experiment [9] it was 4.22 µM and 0.506 µM; in experiment [10], 2.73 µM and 1.66 µM. Also, the TGI in experiment [1] was 0.772 µM and 0.129 µM; in [2], 5.11 µM and 2.41 µM; in experiment [3], 20.6 µM and > 10 µM; in experiment [4] it was 0.808 µM and 0.49 µM; in [5], 55.4 µM and > 10 µM; in [6], 36 µM and > 10 µM. Also, the TGI in experiment [7] was 41.1 µM and > 8.1 µM; in experiment [8], 34 µM and > 10 µM; in [9], 27.3 µM and > 10 µM; in experiment [10], 40.3 µM and > 10 µM.
